Laboratory results as given in publication PMC6014686, “Thienopyrimidinone Based Sirtuin-2 (SIRT2)-Selective Inhibitors Bind in the Ligand Induced Selectivity Pocket” (Journal of Medicinal Chemistry, 2017).
“Also recorded” adds a separate entry of the source. Read-outs that look alike come from different tables or passages of the source.

Key:
[1] = biological target: T1, SIRT2 (Homo sapiens, UniProt Q8IXJ6); assay: SIRT2 enzymatic assay with fluorogenic p53 peptide substrate RHKK(Ac)-AMC; format: biochemical; conditions: for increase in potency over 9a: SIRT2 IC50 ratio to 9a
T1 sequence (Q8IXJ6 1-389): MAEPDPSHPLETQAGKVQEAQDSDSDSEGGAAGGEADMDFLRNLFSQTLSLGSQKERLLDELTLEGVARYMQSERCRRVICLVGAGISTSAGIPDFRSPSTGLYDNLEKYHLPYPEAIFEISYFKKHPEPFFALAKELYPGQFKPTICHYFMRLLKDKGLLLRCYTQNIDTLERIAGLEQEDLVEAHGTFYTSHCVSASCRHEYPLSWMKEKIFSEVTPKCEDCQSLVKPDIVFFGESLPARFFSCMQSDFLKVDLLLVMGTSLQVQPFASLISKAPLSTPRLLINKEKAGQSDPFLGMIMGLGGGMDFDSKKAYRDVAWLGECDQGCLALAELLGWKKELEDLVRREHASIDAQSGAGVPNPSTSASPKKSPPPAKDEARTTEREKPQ
Method: The newly synthesized analogues, based on our previously validated thienopyrimidinone scaffold, were designed to contain a variety of N-3 (columns a–i, Table 1) and N-7′ substituents (rows 9–49, Table 1), with the aim to conduct a relatively broad survey of the SAR features of this scaffold. These compounds were all synthesized according to the previously disclosed method[81] (Schemes SS1 and SS2, Supporting Information) and assessed as racemates. SIRT2 inhibitory activity was assessed using a validated SIRT2 assay, based on a fluorogenic peptide substrate derived from p53 (see Experimental Section). For this assay, suramin was used as a positive control and gave similar inhibitory activity to that observed previously.[83] A vehicle (DMSO) was used as the negative control. SIRT2 inhibitory activity was measured at two compound concentrations, 1 μM (n = 2) and 10 μM (n = 2) for all compounds.
Enzymatic assays were performed by Reaction Biology Corporation (http://www.reactionbiology.com) as described before.[81] In vitro SIRT assays were conducted by using the fluorogenic peptide substrate from p53 residues 379–382 RHKK(Ac)-AMC for SIRT1–3. The assay buffer contained 50 mM Tris-HCl, pH 8.0, 137 mM NaCl, 2.7 mM KCl, 1 mM MgCl2, 1 mg mL^–1 bovine serum albumin, and 1% DMSO. The protocol involved a two-step procedure. The fluorogenic substrate with the acetylated lysine side chain was incubated with the SIRT enzyme to produce the deacetylated products, which were then digested in the second step by the addition of a developer to produce the fluorescent signal proportional to the amount of deacetylated substrates. Deacetylation of substrate peptides was used as a read out of the SIRT activity. All compounds were freshly prepared as 10 mM stock solutions in DMSO and serially diluted to the indicated concentration in the reaction. All test compounds were preincubated with the human SIRTs for about 10 min before commencing the reaction through the addition of substrate. Fluorescence was read (λex, 360 nm; λem, 460 nm) using an EnVision Multilabel Plate Reader (PerkinElmer). The percentages of enzyme activity (relative to DMSO controls) and IC50 values were calculated using the GraphPad Prism 4 program based on a sigmoidal dose–response equation. The number of replicates is stated in the corresponding text.

[2] = test system: SIRT1; conditions: Figure 1, cited from earlier work; for IC50: differing in vitro assays and conditions
[3] = test system: acetylated (lysine-40) α-tubulin in MCF-7 cells; assay: Tubulin acetylation assay, Western blot in MCF-7 cells with TSA; conditions: 0-50 μM for 24 h with 50 nM TSA, N = 3
[4] = test system: SIRT2; parameters: method as in PMID 15780941, PMID 26982234, PMID 25275824, PMID 11483616, PMID 16618762; conditions: Figure 1; differing in vitro assays and conditions; cited from earlier work
[5] = biological target: T2, SIRT1 (Homo sapiens, UniProt Q96EB6); assay: SIRT1 enzymatic assay with fluorogenic p53 peptide substrate RHKK(Ac)-AMC; format: biochemical; conditions: Table 3
T2 sequence (Q96EB6 1-747): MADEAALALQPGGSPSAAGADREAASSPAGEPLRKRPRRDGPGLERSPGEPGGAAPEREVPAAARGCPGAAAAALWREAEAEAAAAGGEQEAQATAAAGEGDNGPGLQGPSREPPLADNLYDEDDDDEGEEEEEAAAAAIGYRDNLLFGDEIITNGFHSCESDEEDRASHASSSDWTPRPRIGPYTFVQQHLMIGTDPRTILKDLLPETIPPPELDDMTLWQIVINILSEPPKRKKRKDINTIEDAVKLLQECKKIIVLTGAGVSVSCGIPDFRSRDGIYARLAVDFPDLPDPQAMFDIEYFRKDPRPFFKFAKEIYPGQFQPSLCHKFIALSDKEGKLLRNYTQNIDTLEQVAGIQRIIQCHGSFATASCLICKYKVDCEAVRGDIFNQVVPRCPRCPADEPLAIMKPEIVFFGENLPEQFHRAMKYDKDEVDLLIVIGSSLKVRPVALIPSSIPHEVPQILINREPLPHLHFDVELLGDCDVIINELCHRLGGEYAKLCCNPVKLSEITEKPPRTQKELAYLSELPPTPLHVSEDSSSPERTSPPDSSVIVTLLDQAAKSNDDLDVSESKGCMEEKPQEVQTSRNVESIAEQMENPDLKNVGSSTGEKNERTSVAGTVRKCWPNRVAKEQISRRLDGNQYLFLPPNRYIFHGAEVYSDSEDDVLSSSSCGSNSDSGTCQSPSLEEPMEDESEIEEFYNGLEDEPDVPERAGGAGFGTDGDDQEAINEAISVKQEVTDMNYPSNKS

[6] = biological target: T3, SIRT3 (Homo sapiens, UniProt Q9NTG7); assay: SIRT3 enzymatic assay with fluorogenic p53 peptide substrate RHKK(Ac)-AMC; format: biochemical; conditions: Table 3
T3 sequence (Q9NTG7 1-399): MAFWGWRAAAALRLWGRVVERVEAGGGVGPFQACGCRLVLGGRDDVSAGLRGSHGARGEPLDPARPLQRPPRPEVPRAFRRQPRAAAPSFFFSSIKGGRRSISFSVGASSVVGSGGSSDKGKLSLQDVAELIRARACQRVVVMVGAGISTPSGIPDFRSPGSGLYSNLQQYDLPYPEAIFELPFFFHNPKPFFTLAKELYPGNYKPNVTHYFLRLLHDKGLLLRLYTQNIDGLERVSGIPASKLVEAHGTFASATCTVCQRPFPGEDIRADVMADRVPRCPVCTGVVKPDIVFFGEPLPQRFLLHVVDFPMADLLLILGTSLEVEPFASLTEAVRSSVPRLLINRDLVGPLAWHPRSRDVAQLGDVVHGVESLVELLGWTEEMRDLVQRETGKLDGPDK

[7] = test system: SIRT3; conditions: Figure 1, cited from earlier work
[8] = test system: SIRT6; parameters: method as in PMID 25672491; conditions: Figure 1; cited from earlier work
[9] = supplement CSV, SIRT2, 10uM, read-out: Inhibition@10uM

Compound: COc1cccc(Cn2cnc3sc4c(c3c2=O)CCC(NCc2cncnc2)C4)c1 (stereo not shown) [22h]
- inhibition at 10 µM [1, 9]: 18.3%

Compound: COc1cccc(NC2CCc3c(sc4ncn(Cc5cccc(-c6ccccc6)c5)c(=O)c34)C2)c1 (stereo not shown) [37i]
- inhibition at 10 µM [1, 9]: 29.6%

Compound: O=c1c2c3c(sc2ncn1Cc1cccc(-c2ccccc2)c1)CC(NC1CCCc2ccccc21)CC3 (stereo not shown) [46i]
- inhibition at 10 µM [1, 9]: 21.6%

Compound: COc1cccc(Cn2cnc3sc4c(c3c2=O)CCC(NCc2c(C)nn(C)c2C)C4)c1 (stereo not shown) [27h]
- inhibition at 10 µM [1, 9]: 14.4%

Compound: O=c1c2c3c(sc2ncn1Cc1ccccc1)CC(NCc1cncnc1)CC3 (stereo not shown) [22g]
- inhibition at 10 µM [1, 9]: 17.5%

Compound: N#C/C(=C\c1ccc(-c2cc(Cl)ccc2Cl)o1)C(=O)Nc1cccc2ncccc12 [AGK2]
- IC50 [2]: > 50000 nM
- effect on α-tubulin acetylation level [3]: showed significant increase of α-tubulin acetylation at 10 to 50 μM

Compound: COc1cccc(Cn2cnc3sc4c(c3c2=O)CCC(NCc2ccccn2)C4)c1 (stereo not shown) [21h]
- inhibition at 10 µM [1, 9]: 18.2%

Compound: O=c1c2c3c(sc2ncn1Cc1ccccc1)CC(NCCc1cccnc1)CC3 (stereo not shown) [31g]
- inhibition at 10 µM [1, 9]: 26.7%

Compound: COc1cccc(Cn2cnc3sc4c(c3c2=O)CCC(NCC2CCCO2)C4)c1 (stereo not shown) [25h]
- inhibition at 10 µM [1, 9]: 3.44%

Compound: COc1ccccc1NC1CCc2c(sc3ncn(Cc4cccc5ccccc45)c(=O)c23)C1 (stereo not shown) [35b]
- inhibition at 10 µM [1, 9]: 22.3%

Compound: O=c1c2c3c(sc2ncn1Cc1cccc2cccnc12)CC(NC1CCCC1)CC3 (stereo not shown) [41e]
- inhibition at 10 µM [1, 9]: 30.5%

Compound: CC1(C)Cc2c(-c3ccc(Cl)cc3)n[nH]c2C(C(N)=O)C1 (stereo not shown) [compound 7]
- IC50 [4]: 1700 nM
- IC50 [2]: 800 nM

Compound: COc1cccc(Cn2cnc3sc4c(c3c2=O)CCC(NCc2ccco2)C4)c1 (stereo not shown) [28h]
- inhibition at 10 µM [1, 9]: 33.4%

Compound: COc1ccc(CNC2CCc3c(sc4ncn(Cc5c(OC)ccc6ccccc56)c(=O)c34)C2)cn1 (stereo not shown) [23a]
- inhibition at 10 µM [1, 9]: 87.9%

Compound: COc1cccc(Cn2cnc3sc4c(c3c2=O)CCC(NCCc2cccnc2)C4)c1 (stereo not shown) [31h]
- inhibition at 10 µM [1, 9]: 40.5%

Compound: O=c1c2c3c(sc2ncn1Cc1ccccc1)CC(NCc1ccncc1)CC3 (stereo not shown) [20g]
- inhibition at 10 µM [1, 9]: 32.6%

Compound: N#Cc1ccc(CNC2CCc3c(sc4ncn(Cc5cccc6cccnc56)c(=O)c34)C2)cc1 (stereo not shown) [15e, 4-(((4-Oxo-3-(quinolin-8-ylmethyl)-3,4,5,6,7,8-hexahydrobenzo[4,5]thieno[2,3-d]pyrimidin-7-yl)amino)methyl)benzonitrile]
- SIRT2 selectivity over SIRT1 [5]: more than 100 fold
- SIRT2 selectivity over SIRT3 [6]: more than 100 fold
- SIRT2/SIRT3 selectivity ([6]; ratio of IC50 values): >256

Compound: COc1ccc2ccccc2c1Cn1cnc2sc(CCN(C)C)c(C)c2c1=O [57a]
- SIRT2 inhibitory activity (in words) [1]: inactive

Compound: CSc1ccc(CSc2cccc(C(=O)Nc3ccc(C#N)cc3)c2)cc1 [compound 5]
- IC50 [4]: 2400 nM
- SIRT1 inhibition @ 10 μM ([2]; 10 μM): 3%
- SIRT3 inhibition @ 10 μM ([7]; 10 μM): no inhibition

Compound: O=c1[nH]c(=S)[nH]c(-c2ccccc2)c1Cc1c(O)ccc2ccccc12 [Cambinol, cambinol]
- IC50 [4]: 51000 nM
- IC50 [2]: 56000 nM

Compound: 6-(2-Aminoethyl)-3-((2-methoxynaphthalen-1-yl) methyl)-5-methylthieno [2,3-d] pyrimidin-4(3H)-one [56a]
- SIRT2 inhibitory activity (in words) [1]: inactive
- SIRT2 percentage inhibition (at 10 μM) ([1]; Table 2 middle value, 10 μM compound): 25%
- Inhibition@10uM ([1]; supplement CSV, SIRT2, 10uM): 24.87

Compound: O=c1c2c3c(sc2ncn1Cc1ccccc1)CC(NCC1CCCO1)CC3 (stereo not shown) [25g]
- SIRT2 inhibitory activity (in words) [1]: lacking in vitro activity against SIRT2
- effect on α-tubulin acetylation level [3]: no effect on tubulin acetylation levels; also recorded: showed no effect on the acetylation of α-tubulin

Compound: COc1ccc(CNC2CCc3c(sc4ncn(Cc5c(OC)ccc6ccccc56)c(=O)c34)C2)cc1 (stereo not shown) [18a]
- increase in potency over 9a [1]: 32 fold

Compound: COc1ccc(Cn2cnc3sc4c(c3c2=O)CCC(NCc2c(C)noc2C)C4)c2ccccc12 (stereo not shown) [29c]
- SIRT2 selectivity over SIRT1 [5]: > 200 fold
- SIRT2 selectivity over SIRT3 [6]: ~30 fold
- effect on α-tubulin acetylation level [3]: increased levels of α-tubulin acetylation in a dose dependent manner; also recorded: increased the α-tubulin acetylation level at 10 μM and retained consistent to 50 μM

Compound: COc1cccc(Cn2cnc3sc4c(c3c2=O)CCC(NCc2ccncc2)C4)c1 (stereo not shown) [20h]
- inhibition at 10 µM [1, 9]: 57.6%

Compound: NC(=O)c1cccnc1 [Nicotinamide, nicotinamide]
- IC50 [2]: 85000 nM

Compound: COc1ccccc1CNC1CCc2c(sc3ncn(Cc4c(OC)ccc5ccccc45)c(=O)c23)C1 (stereo not shown) [16a]
- increase in potency over 9a [1]: 9 fold

Compound: Cc1cc(C)nc(SCC(=O)Nc2ncc(Cc3cccc4ccccc34)s2)n1 [compound 8, SirReal2]
- IC50 [2]: > 100000 nM
- IC50 [8]: > 200000 nM

Compound: COc1ccccc1NC1CCc2c(sc3ncn(Cc4cccc(-c5ccccc5)c4)c(=O)c23)C1 (stereo not shown) [35i]
- inhibition at 10 µM [1, 9]: 26.4%

Compound: O=C(Nc1cnccc1Br)c1cccc(-c2ccc3ccccc3c2)c1 [compound 4]
- IC50 [4]: 600 nM
- IC50 [2]: > 100000 nM
- IC50 ([7]; differing in vitro assays): > 100000 nM

Compound: COc1ccc(Cn2cnc3sc4c(c3c2=O)CCC(NCc2cccc(Cl)c2)C4)c2ccccc12 (stereo not shown) [12c]
- inhibition at 10 µM ([1]; 10 μM compound, n = 2, read-out: SIRT2 percentage inhibition (at 10 μM)): -6.5%
- inhibition at 10 µM [1, 9]: -6.5%
